Values joined by “and” are separate entries in the source; they are usually repeats but may differ in a detail not shown here. Equal values may be shown once. Toxic doses and inconclusive results are not listed. The calls were made as follows: active = survival T/C of 150% or more; inactive = T/C below 125% in these data.
System: P388 leukemia ip, CD2F1 mice, survival T/C
Assay: NCI In Vivo Anticancer Drug Screen. Data for tumor model P388 Leukemia (intraperitoneal) in CD2F1 (CDF1) mice
Conditions: endpoint: median survival time, higher = longer survival
How it was run: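 Mice carrying the transplanted tumor received test compound or vehicle. Survival was recorded in each group, and the value is the treated-group measurement divided by that of the vehicle-treated control group.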

[1] = dose: 60.0 mg/kg/injection, schedule: Q01DX005 (ip), vehicle: saline
[2] = dose: 120.0 mg/kg/injection, schedule: Q01DX005 (ip), vehicle: saline
[3] = dose: 240.0 mg/kg/injection, schedule: Q01DX005 (ip), vehicle: saline
[4] = dose: 50.0 mg/kg/injection, schedule: Q01DX005 (ip), vehicle: Klucel (hydroxypropylcellulose) (HPC)
[5] = dose: 100.0 mg/kg/injection, schedule: Q01DX005 (ip), vehicle: Klucel (hydroxypropylcellulose) (HPC)
[6] = dose: 200.0 mg/kg/injection, schedule: Q01DX005 (ip), vehicle: Klucel (hydroxypropylcellulose) (HPC)
[7] = dose: 50.0 mg/kg/injection, schedule: Q01DX009 (ip), vehicle: saline with Tween-80
[8] = dose: 100.0 mg/kg/injection, schedule: Q01DX009 (ip), vehicle: saline with Tween-80
[9] = dose: 200.0 mg/kg/injection, schedule: Q01DX009 (ip), vehicle: saline with Tween-80

Measured: T/C

NC(CCC(=O)NC(CSCC(=O)Nc1ccc(O)cc1)C(=O)NCC(=O)O)C(=O)O (stereo not given)
inactive: [1] 97 % of control | [2] 97 % of control | [3] 97 % of control

CC(/C=C/c1ccco1)=N\NC(=S)Nc1ccc(Cl)cc1
inactive: dose: 100.0 mg/kg/injection, schedule: Q01DX001 (ip), vehicle: Klucel (hydroxypropylcellulose) (HPC) 91 % of control | dose: 200.0 mg/kg/injection, schedule: Q01DX001 (ip), vehicle: Klucel (hydroxypropylcellulose) (HPC) 100 % of control | dose: 400.0 mg/kg/injection, schedule: Q01DX001 (ip), vehicle: Klucel (hydroxypropylcellulose) (HPC) 100 % of control

O/N=C/c1ccccn1
inactive: [1] 92 % of control | [2] 101 % of control | [3] 100 % of control

CCN=C(C)C1=C(O)c2ccccc2C1=O
inactive: dose: 100.0 mg/kg/injection, schedule: Q04DX002 (ip), vehicle: saline with Tween-80 97 % of control | dose: 200.0 mg/kg/injection, schedule: Q04DX002 (ip), vehicle: saline with Tween-80 98 % of control | dose: 400.0 mg/kg/injection, schedule: Q04DX002 (ip), vehicle: saline with Tween-80 98 % of control

CC12CC=CCC1CCC1C2CCC2(C)C(O)C(O)CC12 (stereo not given)
inactive: [4] 101 % of control | [5] 95 % of control | [6] 93 % of control

N#Cc1ccc(OCCCCOc2ccc(C#N)cc2)cc1
inactive: dose: 6.25 mg/kg/injection, schedule: Q01DX005 (ip), vehicle: saline with Tween-80 95 % of control | dose: 12.5 mg/kg/injection, schedule: Q01DX005 (ip), vehicle: saline with Tween-80 97 % of control | dose: 25.0 mg/kg/injection, schedule: Q01DX005 (ip), vehicle: saline with Tween-80 91 % of control

CC(C)=CCC/C(C)=C\CCl
inactive: dose: 25.0 mg/kg/injection, schedule: Q01DX009 (ip), vehicle: saline with Tween-80 107 % of control | [7] 98 % of control | [8] 87 % of control | [9] 90 % of control

CC1C(=O)OCC1(C)O (stereo not given)
inactive: [1] 107 % of control | [2] 103 % of control | [3] 109 % of control

CSc1cccc(NC(=O)Oc2ccc([N+](=O)[O-])cc2Cl)c1
inactive: dose: 6.25 mg/kg/injection, schedule: Q01DX009 (ip), vehicle: DMSO 100 % of control | dose: 12.5 mg/kg/injection, schedule: Q01DX009 (ip), vehicle: DMSO 93 % of control

Cc1cc(=O)[nH]c(SCC(=O)c2ccccc2)n1
inactive: [4] 102 % of control | [5] 99 % of control | [6] 102 % of control

C/C(=N\Nc1ccc2ccccc2n1)c1ccccn1
inactive: dose: 12.5 mg/kg/injection, schedule: Q01DX005 (ip), vehicle: Klucel (hydroxypropylcellulose) (HPC) 107 % of control | dose: 25.0 mg/kg/injection, schedule: Q01DX005 (ip), vehicle: Klucel (hydroxypropylcellulose) (HPC) 106 % of control | [4] 114 % of control and 116 % of control

CCN(CC)CCN1C(=O)c2cccc(N)c2C1=O
inactive: dose: 50.0 mg/kg/injection, schedule: Q01DX005 (ip), vehicle: saline 103 % of control | dose: 100.0 mg/kg/injection, schedule: Q01DX005 (ip), vehicle: saline 101 % of control

CCCc1c2c(c(CCC)c3c1-c1cccc4cccc-3c14)-c1ccccc1C2=O
inactive: dose: 100.0 mg/kg/injection, schedule: Q04DX003 (ip), vehicle: saline with Tween-80 105 % of control | dose: 200.0 mg/kg/injection, schedule: Q04DX003 (ip), vehicle: saline with Tween-80 95 % of control

Cc1ccc2c3c(c(O)c(C(C)(C)O)cc13)OC2=O
inactive: dose: 15.63 mg/kg/injection, schedule: Q01DX005 (ip), vehicle: Klucel (hydroxypropylcellulose) (HPC) 91 % of control | dose: 31.25 mg/kg/injection, schedule: Q01DX005 (ip), vehicle: Klucel (hydroxypropylcellulose) (HPC) 90 % of control | dose: 62.5 mg/kg/injection, schedule: Q01DX005 (ip), vehicle: Klucel (hydroxypropylcellulose) (HPC) 93 % of control | dose: 125.0 mg/kg/injection, schedule: Q01DX005 (ip), vehicle: Klucel (hydroxypropylcellulose) (HPC) 93 % of control | dose: 250.0 mg/kg/injection, schedule: Q01DX005 (ip), vehicle: Klucel (hydroxypropylcellulose) (HPC) 93 % of control

Oc1ccc(C2c3ccccc3Oc3ccccc32)cc1
inactive: [7] 101 % of control | [8] 111 % of control | [9] 118 % of control

Source: PubChem BioAssay AID330 (DTP/NCI, 2004)
